Source: the supplement of paper PMC6045584
± gives the standard deviation of the averaged measurements.

What was measured:
[1] = compound: CC(=O)NCC(=O)N1[C@@H]2CC[C@H]1c1ccc(Nc3ncc(C(F)(F)F)c(NC4CCC4)n3)cc12; test: area under dose-response curve of surviving fraction (unscaled, Aref=0) (surviving fraction x log10(nM)); higher = more resistant; conditions: exposure time: 5 days; dose range 0.5-1000 nM
Procedure, shortened: (§1)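 Tumour cell lines in 384-well plates were exposed to eight inhibitor concentrations, from 0.5 to 1000 nM, for five days, and viability was read by CellTiter-Glo luminescence in three screens per line. Signals were normalised to DMSO-only wells, and 3-parameter logistic regression in the drc R package fitted dose-response survival curves to the surviving fractions. Area under the curve is given as the unscaled activity area. That area is taken over log10 dose with Aref = 0.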

[2] = compound: T1, CC[C@@]1(O)C(=O)OCc2c1cc1n(c2=O)Cc2cc3ccccc3nc2-1 [CAMPTOTHECIN]; test: as above; conditions: exposure time: 5 days; dose range 0.5-1000 nM
Procedure, shortened: as §1

[3] = compound: C[C@]1(O)C[C@@H](c2nc(-c3ccc4ccc(-c5ccccc5)nc4c3)c3c(N)nccn32)C1 [OSI-906]; test: as above; conditions: exposure time: 5 days; dose range 0.5-1000 nM
Procedure, shortened: as §1

[4] = compound: COc1cc2ncnc(Nc3ccc(F)c(Cl)c3)c2cc1OCCCN1CCOCC1 [GEFITINIB]; test: as above; conditions: exposure time: 5 days; dose range 0.5-1000 nM
Procedure, shortened: as §1

[5] = compound: CC(=O)O[C@H]1C(=O)[C@@]2(C)[C@H]([C@H](OC(=O)c3ccccc3)[C@]3(O)C[C@H](OC(=O)[C@H](O)[C@@H](NC(=O)c4ccccc4)c4ccccc4)C(C)=C1C3(C)C)[C@]1(OC(C)=O)CO[C@@H]1C[C@@H]2O [PACLITAXEL]; test: as above; conditions: exposure time: 5 days; dose range 0.5-1000 nM
Procedure, shortened: as §1

[6] = compound: Cc1ccc(-c2cc(C(F)(F)F)nn2-c2ccc(S(N)(=O)=O)cc2)cc1 [CELECOXIB]; test: as above; conditions: exposure time: 5 days; dose range 0.5-1000 nM
Procedure, shortened: as §1

[7] = compound: O=C(O)C1(C(=O)O)CCC1.[NH2-].[NH2-].[Pt+2] [CARBOPLATIN]; test: as above; conditions: exposure time: 5 days; dose range 0.5-1000 nM
Procedure, shortened: as §1

[8] = compound: CC(=O)c1c(C)c2cnc(Nc3ccc(N4CCNCC4)cn3)nc2n(C2CCCC2)c1=O; test: as above; conditions: exposure time: 5 days; dose range 0.5-1000 nM
Procedure, shortened: as §1

[9] = compound: COCC[n+]1c2c(n(Cc3cnccn3)c1C)C(=O)c1ccccc1C2=O [YM155]; test: as above; conditions: exposure time: 5 days; dose range 0.5-1000 nM
Procedure, shortened: as §1

[10] = compound: T1, CAMPTOTHECIN; test: surviving fraction relative to DMSO-only wells; higher = less growth inhibition; conditions: exposure time: 5 days
Procedure, shortened: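 Five days of continuous inhibitor exposure, at 0.5, 1, 5, 10, 50, 100, 500 and 1000 nM, followed a 24-hour period after log-phase tumour cell lines were seeded at 250–500 cells per well in 384-well plates. Surviving fraction was derived from CellTiter-Glo luminescence relative to the median of DMSO-only wells. Plates were read after 10 minutes at room temperature, and lines screened three times were kept only if replicate Pearson r >0.7 and median Z' >0.3.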

Test System | area under dose-response curve [1] | area under dose-response curve [2] | area under dose-response curve [3] | area under dose-response curve [4] | area under dose-response curve [5] | area under dose-response curve [6] | area under dose-response curve [7] | area under dose-response curve [8] | area under dose-response curve [9] | surviving fraction ([10]; 0.5 nM) | surviving fraction ([10]; 1 nM) | surviving fraction ([10]; 5 nM) | surviving fraction ([10]; 10 nM) | surviving fraction ([10]; 50 nM) | surviving fraction ([10]; 100 nM) | surviving fraction ([10]; 500 nM) | surviving fraction ([10]; 1000 nM)
93VU HEADNECK | 2.61 | 1.8 | 2.69 | 2.74 | 1.04 | 3.54 | 4.03 | 3.72 | 2.62 | 0.844 ± 0.091 | 0.838 ± 0.038 | 0.805 ± 0.036 | 0.789 ± 0.063 | 0.464 ± 0.021 | 0.277 ± 0.043 | 0.103 ± 0.018 | 0.061 ± 0.007
KPD BONE | 2.67 | 1.2 | 2.38 | 3.15 | 1.47 | 3.48 | 3.52 | 3.15 | 1.1 | 0.886 ± 0.02 | 0.856 ± 0.041 | 0.509 ± 0.0098 | 0.327 ± 0.004 | 0.29 ± 0.015 | 0.15 ± 0.016 | 0.041 ± 0.0027 | 0.0363 ± 0.0045
SAOS2 BONE | 2.47 | 1.2 | 2.83 | 3.62 | 1.1 | 3.78 | 3.68 | 3.65 | 1.05 | 0.794 ± 0.046 | 0.829 ± 0.024 | 0.677 ± 0.055 | 0.415 ± 0.018 | 0.129 ± 0.006 | 0.059 ± 0.005 | 0.0293 ± 0.0032 | 0.0267 ± 0.00058
MHM BONE | 3.12 | 2.08 | 3.03 | 3.37 | 1.43 | 3.42 | 3.46 | 3.35 | 1.94 | 0.9523 ± 0.0021 | 0.969 ± 0.031 | 0.94 ± 0.026 | 0.927 ± 0.025 | 0.462 ± 0.022 | 0.334 ± 0.017 | 0.16 ± 0.016 | 0.121 ± 0.0075
HSSYII SYNOVIAL | 1.97 | 0.531 | 2.6 | 3.35 | 0.524 | 3.39 | 3.19 | 3.04 | 0.716 | 0.187 ± 0.025 | 0.686 ± 0.035 | 0.213 ± 0.011 | 0.12 ± 0.0066 | 0.0273 ± 0.0023 | 0.0507 ± 0.0042 | 0.0363 ± 0.001 | 0.0383 ± 0.0038
MDAMB468 BREAST | 2.44 | 1.41 | 3.08 | 3.08 | 0.701 | 3.83 | 3.37 | 3.48 | 0.87 | 0.872 ± 0.061 | 0.832 ± 0.095 | 0.782 ± 0.094 | 0.546 ± 0.056 | 0.158 ± 0.011 | 0.0843 ± 0.0055 | 0.0373 ± 0.0067 | 0.0367 ± 0.0025
SG43 HEADNECK | 2.61 | 2.21 | 2.7 | 2.21 | 1.9 | 3.37 | 3.37 | 2.84 | 2.35 | 1.16 ± 0.13 | 1.18 ± 0.2 | 1.01 ± 0.11 | 0.854 ± 0.18 | 0.624 ± 0.044 | 0.329 ± 0.04 | 0.256 ± 0.054 | 0.143 ± 0.037
HCC38 BREAST | 2.71 | 1.16 | 3.25 | 3.99 | 0.609 | 4.1 | 3.4 | 3.95 | 1.05 | 0.946 ± 0.16 | 0.926 ± 0.15 | 0.563 ± 0.16 | 0.351 ± 0.12 | 0.0953 ± 0.0049 | 0.0423 ± 0.009 | 0.038 ± 0.0072 | 0.0387 ± 0.0025
